Data taken from patent EP1662258A1, “A substrate free in vitro protein kinase assay” (Sirenade Pharmaceuticals AG, priority 2004, dated 2006).
“And” between values parts separate entries of the source, which are not always exact repeats. Equal entries are not always repeated. “Also recorded” adds a separate entry of the source.

How the values were obtained:
Src kinase (Srcv1) = Src kinase (Srcv1) (Homo sapiens, UniProt P12931); experiment: Src protein tyrosine kinase auto-phosphorylation (autoactivation) assay, Srcv1 immobilised on Ni-NTA plates, anti p-Tyr chemoluminiscence readout
Protocol: The assay will be performed as a solid phase assay, which can be done by immobilisation of the kinase (Srcv1) via its His6-tag on Ni-NTA coated 96 wells (Qiagen), as this assay system allows washing steps. Thus it was evaluated, whether it is possible to detect auto-phosphorylated src kinase, immobilized on Ni-NTA coated plates with an HRP labeled anti p-Tyr antibody. Therefore, Src kinase (1.0µM) was incubated for 30 min either in the presence and absence of 50 µM ATP at RT in incubation buffer (50 mM Tris/HCl, pH 7.2, 10 mM MgCl2). Afterwards the solution was diluted to 1.0, 0.5, 0.25 and 0.0 µM final src protein concentration in PBS and incubated for 30 min (V= 200µl) on NiNTA coated plates at RT on a rotation shaker (300 rpm). After removal of the supernatant and 3 times washing with 200 µl PBS-T, immobilized, phosphorylated src kinase was detected. Therefore, a solution of HRP-labeled anti p-Tyr antibody (Abcam) (200 µl, 1:2000 diluted in PBST-0.5% BSA) was added to the wells and the plate was incubated for 30 min at RT °C, 300 rpm. After removal of the supernatant and 3 times washing with 200 µl PBS-T, chemoluminiscence development buffer was added (200 µl of a 1:1 mixture of ECL substrate, Amersham) and chemoluminiscence signal was quantified using Wallac1420 Multilabel counter (Victor^2).
Afterwards 100 µl assay buffer containing 100 µM ATP was added (except for the negative control which was incubated with 100 µl assay buffer without ATP) and the mixture was transfered to Ni-NTA coated plates and further incubated for 20 min at RT on a rotation shaker (300 rpm). The degree of src kinase auto-phosphorylation was detected with an anti p-Tyr-antibody as described above (see Figure 3a).
The solution was transfered on NiNTA plates and incubated for 30 min with 100 µl assay buffer containing 100 µM ATP for the auto-phosphorylation of src. The degree of src kinase auto-phosphorylation was detected with an anti p-Tyr-antibody as described above (see Figure 3b).

Src kinase Srcv2 = Src kinase Srcv2 (Homo sapiens, UniProt P12931); experiment: Src protein tyrosine kinase auto-phosphorylation (autoactivation) assay with Srcv2
Protocol: After mixing the kinase with the compound the final DMSO concentration was 40%. Then, 190 µl of the preincubated compound/kinase solution are transfered to 96 well Ni-NTA plates (Ni-NTA HisSorb™ plates, white, Qiagen (cat.No.35081) and incubated for 30 min at room temperature on a rotation shaker at 300 rpm to allow binding of the kinase to the wells. The kinase/compound solution containing unbound kinase and compound is carefully replaced by 200 µl of DMSO free initiation buffer (50 mM Tris/HCl, pH 7.2, 10 mM MgCl2, 100 µM ATP) per well and the plate is incubated for 20 min at room temperature on a rotation shaker at 300 rpm.
The initiation buffer is then removed carefully and the plate is washed two times with PBS-Tween (PBS-T) buffer (50 mM potassium phosphate, pH 7.2, 150 mM NaCl, 0.05 % Tween 20) (200 µl per well per washing step).
The antibody solution is removed carefully and the plate is washed three times with 200 µl PBS-T buffer (200 µl per well per washing step).
• 2.7.1 The assay was used for qualitative and quantitative analysis of different compound classes. […] The assay was performed either manually or in a semiautomatic approach using the EP3 robotor (Perkin Elmer) for automated pipetting steps. […] Solution was removed and 200 µl assay buffer, containing 100µM ATP was added and the plate was incubated for 30 min at RT on a rotation shaker. Solution was removed and wells were washed 3 times with 200µl PBST. Afterwards 200 µl 1:2000 diluted anti p-Tyr antibody in PBST-0.5% BSA was added and the plate was incubated for 30 min at RT on a rotation shaker. The degree of src kinase auto-phosphorylation was detected with an anti p-Tyr-antibody as described above. […] The DMSO concentration was 30 %. […] The measurements were carried out either as unicates or as triplicates. The standard deviation is shown by error bars.
In order to get information about the quality of the assay the z' was determined for the assay. For determination of the maximal counts src v2 in the absence of inhibitor was used.

inhibition of the kinase activity (in words) (Src kinase (Srcv1); Src kinase (100µl, 2.0 µM), PP1 1.25 mM, 10% DMSO, ATP 100 µM, Figure 3A): clear inhibition | chemoluminiscence signal (counts), mean, first series (Src kinase Srcv2): 5948 | chemoluminiscence signal (counts), mean, second series (Src kinase Srcv2): 5700 | chemoluminiscence signal (counts), single values, first series (Src kinase Srcv2): 5816 and 5922 and 5781 and 6275 | chemoluminiscence signal (counts), single values, second series (Src kinase Srcv2): 6060 and 5465 and 5523 and 5752 | inhibition of Srcv2 kinase (dose response curves, in words) (Src kinase Srcv2): showed inhibition
Compound: Cc1ccc(-c2nn(C(C)(C)C)c3ncnc(N)c23)cc1 [PP1]
inhibition of auto-phosphorylation of src kinase (in words) (Src kinase (Srcv1); 100 µl src kinase (1.0 µM), compound 1.25 mM, 30% DMSO, 100 µM ATP, Figure 3b): potently inhibits; also recorded: strongest inhibition
